Here are results for one substance from patent publication US20240181007A1, “COMPOSITIONS AND METHODS FOR TREATING PULMONARY HYPERTENSION” (Acceleron Pharma Inc., priority 2021, published 2024).

This experiment is described as follows: Muscle-building activity in vivo. As to conditions: material from CHO, HEK293 and COS cells; variability in potency was observed.

On to “ActRIIB-G1Fc: extracellular domain of human ActRIIB fused to a human G1Fc domain with a three-glycine linker; SEQ ID NO: 5”, for which the “muscle-building activity in vivo” value is recorded as “muscle-building activity in vivo”.
